Experimental data as given in PMC10065799, “High-throughput profiling of sequence recognition by tyrosine kinases and SH2 domains using bacterial peptide display” (eLife, 2023).
Blank lines part the entries; values can stand above or below the sequence they belong to.

Legend:
Assay in all cases: pTyr-Var library bacterial peptide display kinase screen (enrichment scores)
[1] = biological target: T1, c-Abl kinase domain (Mus musculus, UniProt P00520); assay type: biochemical;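 for screen: log2 fold change in enrichment of variant over reference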
T1 sequence (P00520 242-493 limits assumed): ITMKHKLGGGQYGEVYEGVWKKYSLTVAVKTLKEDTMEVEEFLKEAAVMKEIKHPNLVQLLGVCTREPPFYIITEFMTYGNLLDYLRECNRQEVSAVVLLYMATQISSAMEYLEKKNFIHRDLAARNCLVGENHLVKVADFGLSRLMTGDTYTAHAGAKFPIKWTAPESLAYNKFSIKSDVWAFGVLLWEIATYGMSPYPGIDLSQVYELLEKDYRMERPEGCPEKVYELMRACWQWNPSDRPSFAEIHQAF

[2] = biological target: c-Src kinase domain (Homo sapiens, UniProt P12931); assay type: biochemical; conditions: sheet "Src";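 note: log2 fold change in enrichment of variant over reference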
[3] = tested on: EPHB2 kinase domain; assay type: biochemical, human; conditions: sheet EPHB2; effect of variant peptide relative to its reference peptide in the pTyr-Var library screen (enrichment scores);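 note: log2 fold change in enrichment of variant over reference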
[4] = tested on: EPHB1 kinase domain; assay type: biochemical, human; conditions: for Screen: sheet EPHB1, effect of the variant peptide relative to its reference peptide in the pTyr-Var library screen (enrichment scores); for Screen (variant relative to reference peptide, measured in the pTyr-Var library screen): sheet "EPHB1", variant seq vs reference seq, bacterial peptide display enrichment
[5] = tested on: Fer kinase domain; assay type: biochemical, mouse; conditions: sheet "Fer";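 note: log2 fold change in enrichment of variant over reference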
[6] = sheet "Abl", effect of variant peptide relative to its reference peptide in pTyr-Var library screen (enrichment)
[7] = effect of the variant peptide relative to its reference peptide in the pTyr-Var library screen
[8] = variant peptide versus its reference peptide in the pTyr-Var library screen
[9] = fig5-data2, sheet "Abl", Screen for the variant/reference peptide pair, pTyr-Var library
[10] = value of the variant peptide against its reference peptide in the pTyr-Var library screen with Fer
[11] = variant peptide relative to its reference peptide, pTyr-Var library screen enrichment

Screen [1, 6]: 2.11
Sequence: AALRLYHVSDS [VIL1_Y256_K254R]

Screen [3]: -1.339
Sequence: ADGLEYPRTGL [MMUT_Y287_S288P]

Screen [1, 9]: 1.494
Sequence: ARKCKYFKKHE [NFIX_Y40_R38C]

Screen [1, 6]: -1.397
Sequence: DPNQQYFIAMD [TBX15_Y159_H156N_YF]

Screen [1, 6]: 1.58
Sequence: DTQNSYWCATS [TSC1_Y304_G305W]

Screen [5, 10]: 1.122
Sequence: EALDFYGEVRI [PTEN_Y155_T160I]

Screen [1, 9]: -0.8395
Sequence: EAVKNYTEKRG [PBRM1_Y672_D674E]

Screen [5, 10]: -3.509 | Screen [4]: -2.287
Sequence: EELLRYAIVTP [POC5_Y37_H36R]

Screen [1, 6]: 1.481
Sequence: ELAVNYQEQAS [SLC9A9_Y591_I589V]

Screen [1, 9]: -0.1377
Sequence: EWLRRYLKNGK [HLA-C_Y195_E197K]

Screen [3]: -2.304
Sequence: FCRHNYGVGES [HLA-DRB1_Y112_V115G_YF]

Screen [1, 6]: 1.474
Sequence: FSSLGYPLPEG [ZSWIM4_Y87_P89L_YF]

Screen [1, 6]: 1.101
Sequence: GCKNRYDEDKP [THAP1_Y14_K16E]

Screen [5, 10]: -1.292
Sequence: GDEVEYMSVSF [GCLC_Y53_L55S]

Screen [1, 6]: 3.326
Sequence: GEFFRYLAEVA [YWHAG_Y133_D129E_YF]

Screen [5, 10]: 3.343
Sequence: GMTLSYLFWEP [NDUFS8_Y74_R77W]

Screen [1, 9]: 0.663
Sequence: HCFAAYFQQGD [GPI_Y351_R347C]

Screen [4]: -0.841 | Screen [3]: -0.6493
Sequence: HEEDNYIEMIP [NWD2_Y566_L569M]

Screen [1, 6]: 2.774
Sequence: IVRSLYEDQED [VHL_Y185_L188Q]

Screen [1, 6]: -2.971
Sequence: KACNPYKPPGP [TTN_Y25826_T25821K]

Screen [1, 6]: -1.7
Sequence: LAVNPYGPPDL [TTN_Y22579_P22584L]

Screen [3]: -1.049
Sequence: LEQDEYALHSH [HADHB_Y244_R247H]

Screen [4]: 0.8437 | Screen [3]: 0.5716
Sequence: LKDEDYLKDTV [HAUS3_Y582_I586T]

Screen [1, 6]: -2.22
Sequence: PGVNFYFQVSA [TTN_Y28166_R28168Q_YF]

Screen [3]: 0.7041
Sequence: PHMQTYEVDHN [SDHB_Y61_L65H]

Screen [1, 9]: -1.292
Sequence: PSSRDYKDNIK [PIGN_Y227_H229D]

Screen [4]: 1.02
Sequence: QDEHGYISLCF [HSPB1_Y133_R136L]

Screen [1, 9]: -1.497
Sequence: QHVPDYRQNGF [PCDHGA1_Y890_V894G_YF]

Screen [1, 9]: 0.01021
Sequence: QKKPCYEIRWK [PDGFRB_Y562_R561C]

Screen [1, 9]: -0.6307
Sequence: QRVLLYVQRET [GRHL3_Y518_R520Q]

Screen [1, 6]: -3.766
Sequence: RGVVMYTSKDR [ZG16B_Y136_M133V]

Screen [1, 9]: 0.9727
Sequence: SENFTYIWWLN [PSG4_Y271_K267E_YF]

Screen [1, 6]: -2.078
Sequence: SFSGEYGSGGG [ZG16_Y30_G32S_YF]

Screen [1, 6]: -2.941
Sequence: TKGNEYVFRVA [TTN_Y30829_E30825K]

Screen [1, 9]: -0.4541
Sequence: TNFSLYLRSLE [MTM1_Y71_R69S_YF]

Screen [1, 9]: -0.5379
Sequence: VKFGAYINDFK [GLB1_Y488_N484K_YF]

Screen [1, 9]: 0.59
Sequence: VVQGLYKSMRK [KBTBD2_Y250_P254R]

More lines, now with the values behind:

Sequence: ACQSLYGGFVE [MVD_Y164_R161Q]
Screen [2, 7]: 0.09261 | Screen [3]: 1.328

Sequence: AGARMYGVLPW [PLP1_Y207_D203G]
Screen [2, 8]: -0.8816 | Screen [3]: -1.831

Sequence: AVARMYGVLPW [PLP1_Y207_D203V]
Screen [2, 8]: -1.597 | Screen [3]: -2.007

Sequence: DFFDLYGGQKF [PTPN11_Y66_E69Q_YF]
Screen [2, 8]: 1.294

Sequence: DGPVNYEEFVQ [CALM2_Y139_Q136P]
Screen [4]: -0.2324

Sequence: DWWQEYVLNES [TGM1_Y267_R264W]
Screen [2, 8]: 1.594

Sequence: EAGKVYLKAAM [CBFB_Y96_P100A]
Screen [1, 9]: 0.4405

Sequence: EDKFMYLEFPQ [PTEN_Y240_F241L]
Screen [2, 8]: -1.097

Sequence: EFRFIYMAVQH [PTPN11_Y515_Q510E_YF]
Screen [2, 8]: 0.0506

Sequence: FLLRVYSIFSK [SGCE_Y38_T36R]
Screen [2, 8]: -1.068

Sequence: FQKDVYNIPPS [NEDD9_Y177_D178N_YF]
Screen [2, 8]: -0.2537 | Screen [3]: -2.279

Sequence: FVSLIYTNFEA [GSTP1_Y109_I105V_YF]
Screen [2, 7]: 0.3433 | Screen [5, 10]: 0.7121

Sequence: GLTSTYVGIRK [ROBO1_Y932_A933V]
Screen [2, 8]: -1.42

Sequence: GQLIVYAPPEW [CNTN6_Y315_F314V]
Screen [2, 7]: 1.101 | Screen [5, 10]: -1.619 | Screen [3]: -0.7681

Sequence: HGEAVYSRDCV [XPC_Y676_R671H]
Screen [2, 8]: 0.7041 | Screen [1, 6]: 1.031

Sequence: HKNNNYEPSLF [BRCA2_Y57_N60S]
Screen [4]: -1.049

Sequence: HPAGNYSLSSV [ARFGAP3_Y473_Q468H]
Screen [1, 9]: -0.2234

Sequence: IVTLKYPIEHG [ACTB_Y69_L65V]
Screen [1, 9]: -1.416

Sequence: KAEQLYIGVTV [EFHC2_Y509_E507Q]
Screen [2, 7]: 0.06421 | Screen [5, 10]: 0.3011

Sequence: KFADVYVGICL [B3GALNT1_Y269_E266A]
Screen [2, 7]: -1.369 | Screen [5, 10]: -1.445

Sequence: KGEDFYFVTCH [FHL1_Y149_C150Y_YF]
Screen [1, 9]: -2.007

Sequence: KGEDFYSVTCH [FHL1_Y149_C150S]
Screen [2, 7]: 2.7 | Screen [5, 10]: 2.793

Sequence: KMKGEYFRFLA [YWHAG_Y130_D129E_YF]
Screen [2, 8]: 0.3869 | Screen [1, 6]: -2.114

Sequence: KSFDMYSGDVM [FAM3D_Y122_A118S]
Screen [4]: 0.345

Sequence: KTGDFYDLFGG [PTPN11_Y63_N58K_YF]
Screen [2, 8]: -0.7427 | Screen [5, 11]: -1.345

Sequence: LDLPGYCLLRE [CCDC116_Y291_P293L]
Screen [1, 9]: -2.162 | Screen [4]: 0.4195

Sequence: LFMGDYVGRGF [PPP2CA_Y86_D88G_YF]
Screen [2, 8]: 1.98 | Screen [4]: 1.681

Sequence: LHQSTYQCFDV [SLC7A14_Y693_R695C_YF]
Screen [2, 8]: 0.927 | Screen [5, 11]: 1.307 | Screen (variant relative to reference peptide, measured in the pTyr-Var library screen) [4]: 1.159

Sequence: LHVKMYNFLRS [ADGRG7_Y760_R756H]
Screen [3]: -0.4432

Sequence: LINSVYGCSRQ [TMPRSS6_Y290_T287N]
Screen [2, 8]: 1.631

Sequence: LITTLYISFLG [KCNQ1_Y267_G269S]
Screen [2, 7]: -1.106

Sequence: LLEGKYEWQEV [CDKN1B_Y74_P69L]
Screen [5, 10]: 1.551

Sequence: LPEHPYHSRPR [NDUFA8_Y142_N140H]
Screen [2, 8]: -0.5324 | Screen [1, 9]: -0.8491 | Screen [3]: 1.643

Sequence: LTVVIYVLVGR [EPHA3_Y561_I564V]
Screen [5, 10]: -2.144 | Screen [3]: -4.573

Sequence: LVRAFYCERRW [CARD11_Y970_R975W]
Screen [3]: -0.93

Sequence: LWQSIYNLDAE [TNNT2_Y251_E254D]
Screen [2, 8]: 0.02036

Sequence: MASISYDFCRV [BST2_Y6_T4I_YF]
Screen [5, 10]: -0.4486

Sequence: NHQFDYTFHWT [CSNK1A1_Y294_D297H_YF]
Screen [5, 10]: 3.7 | Screen [4]: 1.13

Sequence: NSAFFYKTAEE [CCT6B_Y250_G247A]
Screen [1, 9]: 0.06962

Sequence: NTGGFYDLFGG [PTPN11_Y63_D61G_YF]
Screen [2, 8]: -0.08944 | Screen [5, 10]: 1.072

Sequence: NVSILYTASQA [CTNNA1_Y222_P219S]
Screen [1, 9]: -0.9911

Sequence: PADQAYSWFQH [NDST1_Y711_R709Q_YF]
Screen [2, 8]: 1.532 | Screen [5, 10]: 0.5054

Sequence: PIGRKYKKVRF [F8_Y442_R437P]
Screen [1, 9]: 0.1866

Sequence: PLCPDYQEPSR [DDR2_Y481_R478C]
Screen [3]: 1.681

Sequence: PLSGEYFTLQI [TP53_Y327_D324S]
Screen [2, 8]: -0.1322 | Screen [1, 6]: -0.7361 | Screen (variant relative to reference peptide, measured in the pTyr-Var library screen) [4]: 0.4408

Sequence: PNRILYGDFQQ [MYH7_Y715_R719Q]
Screen [2, 8]: -0.8592

Sequence: PNRILYRDFRQ [MYH7_Y715_G716R]
Screen [2, 8]: -3.613

Sequence: PRDGEYFTLQI [TP53_Y327_L323R]
Screen [2, 8]: -0.0193

Sequence: PVADPYDQSFE [P38A Y323]
Enrichment score (mean) ([1]; pTyr-Var library bacterial peptide display screen with c-Abl, 11-residue peptides (SITE_+/-5_AA) of annotated Abl substrate sites, sheet "Abl substrates", mean): 2.375

Sequence: PVQAVYQKVVA [HBB_Y131_A130V]
Screen [2, 7]: 1.787

Sequence: QDLLLYQTHSE [PKHD1_Y255_F253L]
Screen [2, 8]: 0.9307 | Screen [5, 10]: 1.348 | Screen [3]: 1.452

Sequence: QLQVFYATRDQ [MIPEP_Y579_L582R]
Screen [2, 7]: -2.05 | Screen [5, 10]: -2.265 | Screen [3]: -1.278

Sequence: QPRDIYHQTWA [GBA_Y244_G241R]
Screen [2, 7]: -0.7899

Sequence: REETTYLPLTS [ICAM3_Y527_S525T]
Screen [2, 7]: -0.5459

Sequence: RKETFYILSCR [GUCY2C_Y681_T682I]
Screen [2, 7]: -2.18

Sequence: RVSSVYTRSTG [CCR5_Y339_A335V]
Screen [1, 9]: 1.763

Sequence: SEHLIYLEFKS [RASGRP1_Y215_T214I]
Screen [2, 8]: 0.01051 | Screen [1, 9]: 0.2716 | Screen [4]: 0.7598

Sequence: SKLTIYDGRPS [MTM1_Y277_A279G]
Screen [2, 7]: -1.75

Sequence: SLDLSYFHTSS [EMD_Y181_P183H_YF]
Screen [1, 9]: -1.954

Sequence: SLIDMYSEVLA [OPA1_Y268_D273A]
Screen [2, 8]: 1.458

Sequence: TKDTFYQQPMF [GBA_Y451_K452Q]
Screen [5, 10]: 2.731 | Screen [3]: 1.843

Sequence: TKLKDYFIFNK [CCDC42_Y149_A144T_YF]
Screen [1, 9]: -0.5052

Sequence: VKANTYEKFWL [GATM_Y100_P105L_YF]
Screen [2, 7]: -1.276 | Screen [5, 10]: 2.288

Sequence: VQEDIYDEFVV [ALDH2_Y332_E337V]
Screen [2, 7]: 0.8946 | Screen [5, 10]: 3.107
